Assay results reported in PMC9709406 (Frontiers in Pharmacology, 2022).
Several values for one entry are separate records, joined by “and”; a condition that tells them apart may be missing. Equal values may be shown once. Read-outs that look alike come from different tables or passages of the source.

Legend:
[1] = test system: EGFR-TK pathway in KYSE450 cells; assay: Western blot of EGFR-TK pathway proteins, KYSE450; type: cell-based, human; conditions: KYSE450, 3 μM
Procedure: (§1) Cells treated with 1% DMSO were used as control. Then the cells were harvested and total proteins were extracted. Total proteins were separated by 12% SDS polyacrylamide gel electrophoresis and transferred onto PVDF membranes. The membrane was blocked for 1 h, then incubated overnight with a 1 : 1000 dilution of anti-EGFR, anti-p-EGFR (Tyr1068/Tyr1086), anti-Erk1/2, and anti-p-Erk1/2 (Thr202/Tyr204), or 1 : 3000 dilution of anti-GAPDH primary antibody at 4°C. 1 : 3000 anti-rabbit secondary antibodies incubated for 2 h at room temperature. Protein bands were developed by chemiluminescence.

[2] = test system: H1975OR cells; assay: MTT assay, osimertinib-resistant H1975OR; type: cell-based; conditions: Homo sapiens, NCI-H1975, 48 h, osimertinib-resistant H1975OR, value in parentheses in H1975 column, read-out: IC50 48 h H1975OR (data in parentheses) (converted)
From the text: (§2) The human cancer cells (H1650, H1975, KYSE70, KYSE410 and KYSE450) were purchased from the Type Culture Collection of the Chinese Academy of Sciences (Shanghai, China). The human immortalized normal esophageal epithelial cell line SHEE was donated by Dr. Enmin Li from the Laboratory of Tumor Pathology (Shantou University Medical College, Shantou, Guangdong, China). Drug-resistant cells (H1650TR, H1975OR, KYSE70TR, KYSE410TR and KYSE450TR) were induced by China-US (Henan) Hormel Cancer Institute. The cellswere cultured in RPMI-1640 complete growth medium containing 100 U/mL penicillin-streptomycin and 10% FBS. Based on the above medium formula, 100 nm/L paclitaxel was added in taxol-resistant cells, 100 nm/L gefitinib was added in gefitinib-resistant cells. The cells were incubated at 37 °C in an atmosphere containing 5% of CO2. The compounds were dissolved in DMSO to make a 50 mM stock solution and were diluted to the concentration of working solutions with complete growth medium before administration.
Cells were seeded in 96-well plates with 2,200–2,500 cells/well in100 μL. One day after seeding, test compounds with the concentration between 0 and 50 μM were added with 0.1% DMSO as control. Five multiple wells for each concentration. […] The absorbance at 490 nm was measured using a microplate reader (Thermo).

[3] = test system: KYSE450 cells; assay: MTT assay, KYSE450; type: cell-based, human; conditions: for IC50: Homo sapiens, KYSE-450
In short: (§3)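 Absorbance at 490 nm after 1–4 h MTT incubation gave viability of cells exposed 48 h to test compound (0–50 μM; vehicle 0.1% DMSO). Seeding was 2,200–2,500 cells/well, one day before dosing, in RPMI-1640/10% FBS at 37 °C, 5% CO2.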

[4] = test system: KYSE450TR cells; assay: Annexin V/PI flow cytometry for apoptosis, KYSE450TR; type: cell-based, human; conditions: 48 h
Procedure: (§4) Cell-apoptosis analysis was carried out by flow cytometry using the Annexin V/PI apoptosis methods. […] Cells were harvested and incubated with 250 μL of 1 × Annexin V binding buffer containing 5 μL PI and 5 μL FITC Annexin V (final concentration 1.8 μg/ml, Biolegend (cat: 640945) for 15 min at room temperature in dark. 200 µL of 1 × binding buffer was added for flow cytometry analysis (BD FACSCalibur™ Flow Cytometer).

[5] = target: T1, EGFR wild protein (H672-A1210) (Homo sapiens, UniProt P00533); assay: EGFR protein affinity determined with SPR; type: binding; conditions: immobilized wild-type EGFR
T1 construct: purchased Active MOTIF 31165
Procedure: Firstly, EGFR protein (protein concentration : 0.468 μg/μL, Active MOTIF, cat: 31165, lot: 28215004) was covalently immobilized onto a CM5 sensor chip at densities of 2000 response units. […] During the drug-protein interaction, the change of the refractive index was measured in real-time which would allow the plotting of the results of interaction as response units versus time. The interaction results were analyzed under a BIA evaluation 3.0 software.

[6] = test system: KYSE450 cells; assay: Cell cycle analysis by flow cytometry, KYSE450; type: cell-based, human; conditions: KYSE450, 24 h; icotinib at 2 μM, 3l at 8 μM
Procedure: KYSE450/KYSE450TR cells were plated in 6-well plates with a density of 1×10^5 cells/well and cultured overnight. […] Trypsinization treatment and the cells were collected by centrifugation. The cell pellet was re-suspended in 70% ethanol at −20°C for at least 3 h. The cells were washed with PBS and were re-suspended in 250 μL of 0.6% tricine with Renease A for 1 h, then stained in PI (final concentration 1.8 μg/ml, Biolegend cat: 640945) for 15 min in dark. Cells were retransferred to the BD FACSCalibur™ Flow Cytometer. All analyses were performed with FlowJo software v105.3.6.

[7] = test system: H1975 cells; assay: MTT assay for cell proliferation and cytotoxicity, H1975; type: cell-based, human; conditions: Homo sapiens, NCI-H1975, 48 h, MTT, 48 h, H1975, n = 5; read-out: IC50 48 h H1975
In short: as §3

[8] = test system: KYSE70 cells; assay: MTT assay, KYSE70; type: cell-based, human
In short: as §3

[9] = test system: H1650TR cells; assay: MTT assay, taxol-resistant H1650TR; type: cell-based; conditions: Homo sapiens, NCI-H1650, 48 h, value in parentheses in H1650 column
From the text: as §2
Cells were seeded in 96-well plates with 2,200–2,500 cells/well in100 μL. One day after seeding, test compounds with the concentration between 0 and 50 μM were added with 0.1% DMSO as control. Five multiple wells for each concentration. After 48 h, MTT was added and incubated in the plate for 1–4 h in the incubator. The absorbance at 490 nm was measured using a microplate reader (Thermo).

[10] = test system: KYSE450 cells; assay: Annexin V/PI flow cytometry for apoptosis, KYSE450; type: cell-based, human; conditions: 48 h
Procedure: as §4

[11] = test system: EGFR-TK pathway in KYSE450TR cells; assay: Western blot of EGFR-TK pathway proteins, KYSE450TR; type: cell-based, human; conditions: 3 μM, vs control
Procedure: as §1

T1 sequence (P00533 672-1210): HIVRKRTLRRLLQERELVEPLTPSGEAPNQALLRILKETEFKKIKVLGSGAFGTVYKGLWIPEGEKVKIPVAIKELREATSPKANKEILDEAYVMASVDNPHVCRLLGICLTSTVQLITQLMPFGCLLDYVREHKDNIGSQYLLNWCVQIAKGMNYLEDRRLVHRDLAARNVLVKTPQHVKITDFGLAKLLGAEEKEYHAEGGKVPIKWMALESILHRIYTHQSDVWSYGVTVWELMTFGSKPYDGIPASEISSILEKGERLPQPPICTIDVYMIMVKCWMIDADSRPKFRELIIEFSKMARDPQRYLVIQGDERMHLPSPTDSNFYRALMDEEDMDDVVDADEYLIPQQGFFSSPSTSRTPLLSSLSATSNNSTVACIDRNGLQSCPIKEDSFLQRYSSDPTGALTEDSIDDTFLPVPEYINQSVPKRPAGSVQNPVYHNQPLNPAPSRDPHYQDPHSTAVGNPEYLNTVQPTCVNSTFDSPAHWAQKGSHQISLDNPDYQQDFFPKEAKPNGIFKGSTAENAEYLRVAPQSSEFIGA

- IC50 [2]: 9.73 µM
- Rmax(RU) [5]: 25.21 RU
- Kd ([5]; 25°C): 8.23 µM and 8.24 µM
- IC50 [9]: 8.43 µM
Structure (SMILES): FC(F)(F)c1ccc(-n2cc(-c3cccc(Nc4ncnc5cc6c(cc45)OCCOCCOCCO6)c3)nn2)cc1 [compound 3l]
- EGFR (Tyr1068) protein levels, 3l group compared with icotinib group [1]: no obvious difference
- ERK1/2 protein levels ([1]; vs control): lower than the control at 0.5, 1, 2, 3, and 6 h
- P-EGFR (Tyr1068) protein levels ([1]; vs control): lower than the control at 1 h
- P-EGFR (Tyr1086) protein levels ([1]; vs control): lower than the control at 0.5, 1, 2, 3, and 6 h
- P-ERK1/2 (Thr202/Tyr204) protein levels ([1]; vs control): lower than the control at 0.5, 1, 2, 3, and 6 h
- IC50 ([3]; KYSE450, MTT, 490 nm, read-out: IC50): 4 µM
- IC50 ([3]; MTT, 48 h, KYSE450, n = 5, read-out: IC50 48 h KYSE450): 3.4 ± 0.16 µM
- blank-corrected absorbance 490 nm relative to control (fraction) ([3]; KYSE450, concentration 2): 0.4268
- inhibition (1 minus fraction of control) ([3]; KYSE450, concentration 2): 0.5732
- blank-corrected absorbance 490 nm relative to control (fraction) ([3]; KYSE450, concentration 4): 0.4691
- inhibition (1 minus fraction of control) ([3]; KYSE450, concentration 4): 0.5309
- blank-corrected absorbance 490 nm relative to control (fraction) ([3]; KYSE450, concentration 8): 0.05646
- inhibition (1 minus fraction of control) ([3]; KYSE450, concentration 8): 0.9435
- proportion of apoptotic cells ([4]; 5 μM): 32.12%
- proportion of apoptotic cells ([4]; 10 μM): 83.69%
- cell cycle phase in which cells were arrested [6]: G2/M phase
- IC50 [7]: 3.26 ± 0.26 µM
- IC50 ([8]; Homo sapiens, KYSE-70, MTT, 48 h, KYSE70, n = 5): 4.25 ± 0.21 µM
- blank-corrected absorbance 490 nm relative to control (fraction) ([8]; KYSE70, concentration 2.25): 0.9298
- inhibition (1 minus fraction of control) ([8]; KYSE70, concentration 2.25): 0.07024
- blank-corrected absorbance 490 nm relative to control (fraction) ([8]; KYSE70, concentration 4.5): 0.4365
- inhibition (1 minus fraction of control) ([8]; KYSE70, concentration 4.5): 0.5635
- blank-corrected absorbance 490 nm relative to control (fraction) ([8]; KYSE70, concentration 9): 0.2659
- inhibition (1 minus fraction of control) ([8]; KYSE70, concentration 9): 0.7341
- proportion of apoptotic cells ([10]; KYSE450, 2 μM): 24.32%
- proportion of apoptotic cells ([10]; KYSE450, 4 μM): 39.89%
- P-EGFR (Tyr1068) protein levels [11]: lower than the control at 1 and 2 h
- P-ERK1/2 (Thr202/Tyr204) protein levels [11]: lower than the control at 6 h
